Read-outs that look alike come from different tables or passages of the source.
Legend:
CRTH2 = CRTH2 (Homo sapiens (Human), UniProt Q9Y5Y4); test: CRTH2 receptor binding inhibitory activity ([3H]-PGD2 displacement, membranes of CRTH2-expressing K562 cell); conditions: [3H]-PGD2 displacement, membrane of CRTH2-expressing K562 cell, read-out: Ki
Procedure, shortened: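 Incubation ran 60 min at room temperature using 20 μg/well membrane from CRTH2-expressing K562 cells in pH 7.4 Tris/HCl (50 mM) with 10 mM MgCl2.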

Human DP1 receptor = Human DP1 receptor (Homo sapiens (Human), UniProt Q13258); test: Human DP1 inhibitory activity in DP1-expressing cell (PGD2-induced cAMP); format: cell-based; conditions: category of cAMP IC50, human DP1 receptor expressing Jurkut cell
Method: Compounds were categorized as AA (cAMP is less than 100 nM) and A (cAMP is more than 100 nM and less than 5000 nM) as shown in Table 99 and 100.

[1] = CRTH2 receptor binding, categorized AAAA/AAA

Chain of Human DP1 receptor (Q13258 whole entry): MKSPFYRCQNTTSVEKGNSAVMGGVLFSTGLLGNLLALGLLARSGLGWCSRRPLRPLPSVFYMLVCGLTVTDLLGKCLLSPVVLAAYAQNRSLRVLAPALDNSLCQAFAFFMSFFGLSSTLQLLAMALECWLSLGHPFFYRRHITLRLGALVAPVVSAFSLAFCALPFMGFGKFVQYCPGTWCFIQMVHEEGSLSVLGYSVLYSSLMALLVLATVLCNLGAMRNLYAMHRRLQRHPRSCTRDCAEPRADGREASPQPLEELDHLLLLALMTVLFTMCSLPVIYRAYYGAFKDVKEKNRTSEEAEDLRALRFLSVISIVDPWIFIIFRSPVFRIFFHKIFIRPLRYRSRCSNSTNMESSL
Chain of CRTH2 (Q9Y5Y4 whole entry): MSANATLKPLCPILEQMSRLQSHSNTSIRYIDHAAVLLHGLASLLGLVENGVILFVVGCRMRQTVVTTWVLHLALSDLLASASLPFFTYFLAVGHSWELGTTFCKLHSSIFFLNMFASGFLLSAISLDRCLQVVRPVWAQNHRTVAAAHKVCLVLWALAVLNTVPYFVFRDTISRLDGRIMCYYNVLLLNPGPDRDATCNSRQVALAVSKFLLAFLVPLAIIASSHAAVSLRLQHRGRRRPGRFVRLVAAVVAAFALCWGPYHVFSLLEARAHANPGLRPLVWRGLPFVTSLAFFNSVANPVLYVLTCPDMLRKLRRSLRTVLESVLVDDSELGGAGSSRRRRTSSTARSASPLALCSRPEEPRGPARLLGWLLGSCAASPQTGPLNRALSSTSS

SMILES | Ki (CRTH2; [1]) [µM] | IC50 (Human DP1 receptor) [µM] | Ki (CRTH2) [µM]
CCOc1ccc(S(=O)(=O)N2C[C@@H](C)[C@@H](n3nc(CC(=O)O)c4ccccc43)C2)c(/C=C/c2ccccc2)c1 [Compound I-185] | < 0.1 | 0.1 to 5 | 
CO[C@@H]1CN(S(=O)(=O)c2ccc(OC(C)C)cc2)C[C@@H]1n1nc(CC(=O)O)c2ccc(F)cc21 [Compound I-30] | 0.1 to 5 | 0.1 to 5 | 0.14
COc1ccc(S(=O)(=O)N2C[C@@H](C)[C@@H](n3nc(CC(=O)O)c4ccccc43)C2)s1 [Compound I-178] | < 0.1 | 0.1 to 5 | 
CC(C)Oc1ccc(S(=O)(=O)N2C[C@H](n3nc(CC(=O)O)c4ccc(F)cc43)C[C@@H]2c2ccccc2)cc1 [Compound I-360] | < 0.1 | < 0.1 | 0.03
Cc1ccc2c(CC(=O)O)nn([C@H]3CN(S(=O)(=O)C4CC4C(C)C)C[C@H]3C)c2c1 (stereo partly shown) [Compound I-249] | < 0.1 | 0.1 to 5 | 
CC(C)Oc1ccc(S(=O)(=O)N2C[C@H](O)[C@@H](n3nc(CC(=O)O)c4ccc(F)cc43)C2)cc1 [Compound I-25] | < 0.1 | 0.1 to 5 | 
CCOc1ccc(S(=O)(=O)N2C[C@H](n3nc(CC(=O)O)c4ccccc43)C[C@@H]2CF)cn1 [Compound I-275] | 0.1 to 5 | 0.1 to 5 | 
CCOc1ccc(S(=O)(=O)N2C[C@@H](C)[C@@H](n3nc(CC(=O)O)c4ccc(F)cc43)C2)s1 [Compound I-169] | < 0.1 | < 0.1 | 
CC(C)Oc1ccc(S(=O)(=O)N2C[C@H](n3nc(CC(=O)O)c4ccc(F)cc43)CC2c2cccnc2)cc1 (stereo partly shown) [Compound I-345] | 0.1 to 5 | 0.1 to 5 | 
CCOc1ccc(S(=O)(=O)N2C[C@@H](C)[C@@H](n3nc(CC(=O)O)c4cc(C)ccc43)C2)cc1 [Compound I-202] | 0.1 to 5 | < 0.1 | 
CCOc1ccc(S(=O)(=O)N2C[C@@H](C)[C@@H](n3nc(CC(=O)O)c4ccccc43)C2)c(CNC(C)=O)c1 [Compound I-259] | < 0.1 | 0.1 to 5 | 
CCC[C@@H]1CN(S(=O)(=O)c2ccc(OC(C)C)cc2)C[C@@H]1n1nc(CC(=O)O)c2ccc(F)cc21 [Compound I-34] | < 0.1 | < 0.1 | 0.077
Cc1ccc2c(CC(=O)O)nn([C@@H]3C[C@H](C(F)F)N(S(=O)(=O)c4ccc(OC(C)C)cc4)C3)c2c1 [Compound I-92] | 0.1 to 5 | < 0.1 | 
CC(C)Oc1ccc(S(=O)(=O)N2C[C@@H](C)[C@@H](n3nc(CC(=O)O)c4ccccc43)C2)cc1 [Compound I-35] | < 0.1 | < 0.1 | 
CC(C)Oc1ccc(S(=O)(=O)N2C[C@H](n3nc(CC(=O)O)c4ccccc43)C[C@@H]2C(F)F)cc1 [Compound I-90] | 0.1 to 5 | < 0.1 | 
CC(C)Oc1ccc(S(=O)(=O)N2C[C@H](n3nc(CC(=O)O)c4ccccc43)C[C@@H]2Cc2ccccc2)cc1 [Compound I-349] | 0.1 to 5 | < 0.1 | 
C[C@@H]1CN(S(=O)(=O)c2ccc3occc3c2)C[C@@H]1n1nc(CC(=O)O)c2ccccc21 [Compound I-215] | < 0.1 | 0.1 to 5 | 0.022

SMILES | Ki (CRTH2; [1]) [µM] | IC50 (Human DP1 receptor) [µM] | Ki (CRTH2) [µM]
CC(C)Oc1ccc(S(=O)(=O)N2C[C@@H](C)[C@@H](n3cc(CC(=O)O)c4cccnc43)C2)cc1 [Compound I-148] | < 0.1 | 0.1 to 5 | 0.0056
CC(C)Oc1ccc(S(=O)(=O)N2C[C@@H](CF)[C@@H](n3nc(CC(=O)O)c4ccc(F)cc43)C2)cc1 [Compound I-42] | < 0.1 | 0.1 to 5 | 
Cc1ccc2c(c1)c(CC(=O)O)nn2[C@H]1CN(S(=O)(=O)c2ccc(OCF)cc2)C[C@H]1C [Compound I-268] | < 0.1 | < 0.1 | 
CCOc1ccc(S(=O)(=O)N2C[C@@H](C)[C@@H](n3nc(CC(=O)O)c4ccc(F)cc43)C2)cc1 [Compound I-106] | < 0.1 | < 0.1 | 
CCOc1ccc(S(=O)(=O)N2C[C@@H](n3nc(CC(=O)O)c4ccccc43)[C@](C)(F)C2)cc1 [Compound I-310] | 0.1 to 5 | 0.1 to 5 | 
CC(C)Oc1ccc(S(=O)(=O)N2C[C@@H](C)[C@@H](n3nc(CC(=O)NC#N)c4ccc(F)cc43)C2)cc1 [Compound I-139] | < 0.1 | < 0.1 | 0.032
CC(C)Oc1ccc(S(=O)(=O)N2C[C@H](n3nc(CC(=O)O)c4ccc(F)cc43)C[C@@H]2C)cc1 [Compound I-46] | < 0.1 | < 0.1 | 
CC(C)Oc1ccc(S(=O)(=O)N2C[C@@H](C)[C@@H](n3nc(CC(=O)O)c4ccc(Cl)cc43)C2)cn1 [Compound I-146] | < 0.1 | < 0.1 | 
CC(C)Oc1ccc(S(=O)(=O)N2C[C@H](C)[C@@H](n3nc(CC(=O)O)c4ccccc43)C2)cc1 [Compound I-115] | < 0.1 | < 0.1 | 
CCOc1ccc(S(=O)(=O)N2C[C@@H](C)[C@@H](n3nc(CC(=O)O)c4ccccc43)C2)c(C=NOC)c1 [Compound I-181] | 0.1 to 5 | 0.1 to 5 | 
C[C@@H]1CN(S(=O)(=O)c2ccccc2C#N)C[C@@H]1n1nc(CC(=O)O)c2ccc(F)cc21 [Compound I-124] | < 0.1 | 0.1 to 5 | 
CC(C)Oc1ccc(S(=O)(=O)N2C[C@@H](C)[C@@H](n3nc(CC(=O)O)c4cc(Cl)ccc43)C2)cc1 [Compound I-163] | 0.1 to 5 | < 0.1 | 
CCOc1ccc(S(=O)(=O)N2C[C@@H](C)[C@@H](n3nc(C(C)(O)C(=O)O)c4ccccc43)C2)cc1 (stereo partly shown) [Compound I-283] | 0.1 to 5 | < 0.1 | 
CCc1ccc(S(=O)(=O)N2C[C@@H](C)[C@@H](n3nc(CC(=O)O)c4ccc(F)cc43)C2)cc1 [Compound I-118] | < 0.1 | < 0.1 | 
CC(C)Oc1ccc(S(=O)(=O)N2C[C@H](n3nc(CC(=O)O)c4ccc(F)cc43)C[C@H]2c2ccccn2)cc1 [Compound I-350] | < 0.1 | 0.1 to 5 | 
CCOc1cc(F)c(S(=O)(=O)N2C[C@@H](C)[C@@H](n3nc(CC(=O)O)c4ccc(F)cc43)C2)c(F)c1 [Compound I-125] | < 0.1 | 0.1 to 5 | 

Continued, values first:

Ki (CRTH2; [1]) [µM] | IC50 (Human DP1 receptor) [µM] | Ki (CRTH2) [µM] | SMILES
< 0.1 | 0.1 to 5 |  | C#Cc1cc(OCC)ccc1S(=O)(=O)N1C[C@@H](C)[C@@H](n2nc(CC(=O)O)c3ccccc32)C1 [Compound I-278]
< 0.1 | 0.1 to 5 |  | CC(C)Oc1ccc(S(=O)(=O)N2C[C@H](n3nc(CC(=O)O)c4ccc(F)cc43)C[C@@H]2CC#N)cc1 [Compound I-18]
0.1 to 5 | 0.1 to 5 |  | CCOc1ccc(S(=O)(=O)N2C[C@@H](n3nc(CC(=O)O)c4ccccc43)[C@H](C)[C@H]2C#N)cc1 [Compound I-294]
< 0.1 | < 0.1 |  | CCOc1ccc(S(=O)(=O)N2C[C@@H](C)[C@@H](n3nc(CC(=O)O)c4ccc(C(F)(F)F)cc43)C2)cn1 [Compound I-132]
< 0.1 | < 0.1 |  | CC(C)Oc1ccc(S(=O)(=O)N2C[C@H](n3nc(CC(=O)O)c4ccc(F)cc43)C[C@@H]2COc2cccc(O)c2)cc1 [Compound I-346]
< 0.1 | < 0.1 |  | CC(C)Oc1ccc(S(=O)(=O)N2C[C@@H](C)[C@@H](n3nc(CC(=O)O)c4ccc(F)cc43)C2)c(C#N)c1 [Compound I-58]
< 0.1 | < 0.1 |  | CC(C)Oc1ccc(S(=O)(=O)N2C[C@H](n3nc(CC(=O)O)c4ccc(F)cc43)C[C@@]2(C)C#N)cc1 [Compound I-105]
0.1 to 5 | < 0.1 |  | Cc1cccc2c1c(CC(=O)O)nn2[C@H]1CN(S(=O)(=O)c2ccc(OC(C)C)cc2)C[C@H]1C [Compound I-250]
< 0.1 | 0.1 to 5 |  | CON=C[C@@H]1CN(S(=O)(=O)c2ccc(OC(C)C)cc2)C[C@@H]1n1nc(CC(=O)O)c2ccc(F)cc21 [Compound I-65]
< 0.1 | 0.1 to 5 | 0.0048 | CC(C)Oc1ccc(S(=O)(=O)N2C[C@@H](C)[C@@H](n3nc(CC(=O)O)c4ccc(F)cc43)C2)nc1 [Compound I-149]
0.1 to 5 | 0.1 to 5 |  | CC(C)Oc1ccc(S(=O)(=O)N2C[C@H](n3nc(CC(=O)O)c4cccc(F)c43)C[C@@H]2C(F)F)cc1 [Compound I-133]
0.1 to 5 | < 0.1 |  | CCOc1ccc(S(=O)(=O)N2C[C@@H](C)[C@@H](n3nc(CC(=O)O)c4cc(Cl)ccc43)C2)cc1 [Compound I-161]
< 0.1 | 0.1 to 5 |  | CC(C)Oc1ccc(S(=O)(=O)N2C[C@@H](n3nc(CC(=O)O)c4ccc(F)cc43)C[C@H]2C)cc1 [Compound I-8]
< 0.1 | 0.1 to 5 |  | COc1ccc(S(=O)(=O)N2C[C@@H](C)[C@@H](n3nc(CC(=O)O)c4ccccc43)C2)nc1 [Compound I-246]
< 0.1 | 0.1 to 5 |  | C[C@@H]1CN(S(=O)(=O)c2ccc(OCCOc3ccccc3)cc2)C[C@@H]1n1nc(CC(=O)O)c2ccccc21 [Compound I-192]
< 0.1 | < 0.1 |  | COc1ccc(S(=O)(=O)N2C[C@@H](C)[C@@H](n3nc(CC(=O)O)c4ccccc43)C2)c(F)c1 [Compound I-244]
< 0.1 | 0.1 to 5 |  | COCCCOc1ccc(S(=O)(=O)N2C[C@@H](C)[C@@H](n3nc(CC(=O)O)c4ccccc43)C2)cc1 [Compound I-274]
< 0.1 | < 0.1 |  | CCOc1ccc(S(=O)(=O)N2C[C@@H](C)[C@@H](n3nc(CC(=O)O)c4ccccc43)C2)c(CF)c1 [Compound I-258]
0.1 to 5 | 0.1 to 5 | 0.17 | CC(C)Oc1ccc(S(=O)(=O)N2C[C@H](n3nc(CC(=O)O)c4ccc(F)cc43)C[C@@H]2c2ncc[nH]2)cc1 [Compound I-363]

Reference: patent publication US9725442B2, “Heterocyclic derivative having PGD2 receptor antagonist activity” (Shionogi & Co., Ltd., priority 2011, dated 2017)
